In patent US20240383898A1, “PYRIDO RING COMPOUND, PREPARATION METHOD THEREFOR, INTERMEDIATE, COMPOSITION, AND APPLICATION” (YIYOU BIOTECH (SHANGHAI) CO., LTD, priority 2021, published 2024):

What was measured:
JAK1 = target: T1, JAK1 (Homo sapiens, UniProt P23458); assay: In vitro activity test of JAK1 kinase (Caliper EZ Reader conversion assay); assay type: biochemical; conditions: enzyme activity, 10 concentrations from 1000 nM, 3-fold dilution
T1 construct: purchased Carna 08-114
Experimental: (§1) In Vitro Activity Test of JAK1 and JAK2 Kinases
(§2) • Centrifuge (manufacturer: Eppendorf, model: 5430) • ELISA Instrument (Manufacturer: Perkin Elmer, Model: Caliper EZ Reader 1I) • Echo 550 (Manufacturer: Labcyte, Model: Echo 550)
(§3) (1) Prepare 1 Kinase buffer.
(§4) (2) Compound concentration gradient preparation: The test compound was tested at 1000 nM, 3-fold dilution, 10 concentrations, two-well assay, and configured to a 100-fold final concentration in a 384-well plate. 250 nl of the test compound was then transferred to the 384 reaction plate using Echo550. 250 nl of 100% DMSO was added to each of the negative and positive control wells.
(§5) (3) Prepare 2.5 times the final concentration of kinase solution with 1×Kinase buffer.
(§6) (4) Add 10 μL of 2.5 times the final concentration of kinase solution to the compound wells and 10 μL of 1×Kinase buffer to the negative control wells.
(§7) (5) Centrifuge at 1000 rpm for 30 seconds, mix well with shaking, and incubate at room temperature for 10 minutes.
(§8) (6) Prepare a 25/15-fold final concentration of mixture of ATP and Kinase substrate with 1×Kinase buffer.
(§9) (7) Add 15 μL of a mixture of 25/15 times the final concentration of ATP and substrate to start the reaction.
(§10) (8) Centrifuge the 384-well plate at 1000 rpm for 30 seconds, mix well with shaking, and incubate at room temperature for an appropriate amount of time.
(§11) (9) Stop the kinase reaction by adding 30 μL of termination solution, centrifuge at 1000 rpm for 30 seconds, and mix well with shaking.
(§12) (10) Read the conversion rate with Caliper EZ Reader.
(§13) where: Conversion %_sample is the conversion rate reading of the sample-, Conversion %_min: the average value of the negative control wells, representing the conversion reading of the wells without enzyme activity: Conversion %-max: the average value of the positive control wells, representing the conversion reading of the wells without compound inhibition.
(§14) The log value of concentration was used as the X-axis and the percentage inhibition as the Y-axis, and the function of the analytical software GraphPad Prism 5; log(inhibitor) vs. response -Variable slope, was used to lit dose-effect curves to obtain the IC50) values of each compound on enzyme activity.
(§15) The formula is Y=Bottom+(Top-Bottom)/(1+10^((LogIC50-X)*HillSlope))
(§16) The 1C50 data are specified in Table 1.

JAK2 = target: T2, JAK2 (Homo sapiens, UniProt O60674); assay: In vitro activity test of JAK2 kinase (Caliper EZ Reader conversion assay); assay type: biochemical; conditions: enzyme activity, 10 concentrations from 1000 nM, 3-fold dilution
T2 construct: purchased Carna 08-045
Experimental: as §1, §2, §3, §4, §5, §6, §7, §8, §9, §10, §11, §12, §13, §14, §15, §16

T1 sequence (P23458 whole entry, species assumed): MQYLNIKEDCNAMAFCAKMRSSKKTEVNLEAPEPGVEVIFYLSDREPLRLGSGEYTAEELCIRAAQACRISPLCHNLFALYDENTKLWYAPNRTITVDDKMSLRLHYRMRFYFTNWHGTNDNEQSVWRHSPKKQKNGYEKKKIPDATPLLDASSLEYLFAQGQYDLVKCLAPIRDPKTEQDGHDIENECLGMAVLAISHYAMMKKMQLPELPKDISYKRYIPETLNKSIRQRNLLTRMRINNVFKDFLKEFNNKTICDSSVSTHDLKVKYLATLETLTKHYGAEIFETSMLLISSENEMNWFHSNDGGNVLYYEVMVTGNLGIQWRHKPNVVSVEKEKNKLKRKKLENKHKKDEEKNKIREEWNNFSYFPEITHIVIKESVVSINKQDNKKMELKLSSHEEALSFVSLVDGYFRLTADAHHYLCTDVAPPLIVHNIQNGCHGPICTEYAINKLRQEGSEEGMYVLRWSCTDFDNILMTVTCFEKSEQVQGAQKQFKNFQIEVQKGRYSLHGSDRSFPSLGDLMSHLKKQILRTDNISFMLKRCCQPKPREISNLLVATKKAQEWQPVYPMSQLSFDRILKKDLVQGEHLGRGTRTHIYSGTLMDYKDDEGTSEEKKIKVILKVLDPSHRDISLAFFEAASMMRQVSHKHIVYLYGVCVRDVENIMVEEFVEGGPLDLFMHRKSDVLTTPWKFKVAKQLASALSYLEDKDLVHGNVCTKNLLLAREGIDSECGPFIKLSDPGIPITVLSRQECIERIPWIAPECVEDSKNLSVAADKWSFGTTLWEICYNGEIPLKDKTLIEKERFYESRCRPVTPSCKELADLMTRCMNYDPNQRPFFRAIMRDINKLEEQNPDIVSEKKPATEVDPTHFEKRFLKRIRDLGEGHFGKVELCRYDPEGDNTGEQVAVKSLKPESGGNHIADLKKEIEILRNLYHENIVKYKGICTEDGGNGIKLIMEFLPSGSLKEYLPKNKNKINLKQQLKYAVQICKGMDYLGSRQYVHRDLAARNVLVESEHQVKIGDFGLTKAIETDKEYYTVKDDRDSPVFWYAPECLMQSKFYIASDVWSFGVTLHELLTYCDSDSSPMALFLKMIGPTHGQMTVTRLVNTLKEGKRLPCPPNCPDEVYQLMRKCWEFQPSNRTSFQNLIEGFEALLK
T2 sequence (O60674 whole entry, species assumed): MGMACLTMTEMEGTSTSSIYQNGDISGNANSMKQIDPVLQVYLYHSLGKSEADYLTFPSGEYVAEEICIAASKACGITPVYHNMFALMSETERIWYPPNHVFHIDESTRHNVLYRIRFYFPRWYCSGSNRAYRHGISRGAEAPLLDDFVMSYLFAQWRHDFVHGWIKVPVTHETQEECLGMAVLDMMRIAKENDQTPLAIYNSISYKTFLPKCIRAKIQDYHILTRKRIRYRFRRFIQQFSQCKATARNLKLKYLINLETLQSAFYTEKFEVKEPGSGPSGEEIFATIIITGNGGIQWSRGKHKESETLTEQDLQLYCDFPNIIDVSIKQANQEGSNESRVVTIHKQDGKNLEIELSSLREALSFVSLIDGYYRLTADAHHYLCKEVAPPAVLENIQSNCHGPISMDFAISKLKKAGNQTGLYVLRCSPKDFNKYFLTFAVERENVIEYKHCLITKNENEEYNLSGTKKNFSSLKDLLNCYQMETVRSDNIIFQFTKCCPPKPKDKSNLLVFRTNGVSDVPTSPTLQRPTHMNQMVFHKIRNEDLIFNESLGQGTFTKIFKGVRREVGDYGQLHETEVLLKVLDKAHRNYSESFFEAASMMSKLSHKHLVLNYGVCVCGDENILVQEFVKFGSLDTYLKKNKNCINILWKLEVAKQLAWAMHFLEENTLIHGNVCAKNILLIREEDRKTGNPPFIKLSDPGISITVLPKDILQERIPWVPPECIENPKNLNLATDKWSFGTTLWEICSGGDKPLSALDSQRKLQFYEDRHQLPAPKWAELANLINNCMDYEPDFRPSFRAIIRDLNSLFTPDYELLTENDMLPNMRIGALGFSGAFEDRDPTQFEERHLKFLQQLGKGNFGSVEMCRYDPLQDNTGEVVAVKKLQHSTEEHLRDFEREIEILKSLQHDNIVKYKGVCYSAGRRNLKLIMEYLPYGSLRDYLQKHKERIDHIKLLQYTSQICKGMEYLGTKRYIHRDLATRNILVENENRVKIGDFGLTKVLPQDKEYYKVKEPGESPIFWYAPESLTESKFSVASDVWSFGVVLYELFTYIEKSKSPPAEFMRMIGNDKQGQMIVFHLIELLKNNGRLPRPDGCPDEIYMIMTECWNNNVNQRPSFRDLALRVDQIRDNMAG

IC50 (JAK1)	IC50 (JAK2)	Structure (SMILES)
10 to 100 nM	100 to 1000 nM	C[C@@H](O)c1nc2cnc3[nH]ccc3c2n1C1CCN(CCC#N)C1 (stereo partly drawn) [LXS49, 3-(3-(2-((R)-1-Hydroxyethyl)imidazo[4,5-d]pyrrolo[2,3-b]pyridin-1(6H)-yl)pyrrolidin-1-yl)propanenitrile]
100 to 1000 nM	100 to 1000 nM	C[C@@H](O)c1nc2cnc3[nH]ccc3c2n1C1CCN(C(=O)c2ccc(C#N)cc2)C1 (stereo partly drawn) [LXS02, 4-(3-(2-((R)-1-hydroxyethyl)imidazo[4,5-d]pyrrolo[2,3-b]pyridin-1(6H)-yl)pyrrolidin-1-carbonyl)benzonitrile]
10 to 100 nM	100 to 1000 nM	CCCS(=O)(=O)N1CCC(n2c([C@@H](C)O)nc3cnc4[nH]ccc4c32)C1 (stereo partly drawn) [LXS05, (1R)-1-(1-(1-(propylsulfonyl)pyrrolidin-3-yl)-1,6-dihydroimidazo[4,5-d]pyrrolo[2,3-b]pyridin-2-yl)ethan-1-ol]
10 to 100 nM	10 to 100 nM	CCCS(=O)(=O)N1CCC(n2c(-c3ccc(CO)o3)nc3cnc4[nH]ccc4c32)C1 (stereo not shown) [LXS16]
100 to 1000 nM	100 to 1000 nM	CSc1ccc(-c2nc3cnc4[nH]ccc4c3n2C2CCC(C#N)CC2)cc1 (stereo in doubt) [LXS42, trans-4-(2-(4-(Methylthio)phenyl)imidazo[4,5-d]pyrrolo[2,3-b]pyridin-1(6H)-yl)cyclohexanecarbonitrile]
100 to 1000 nM	> 1000 nM	C[C@@H](O)c1nc2cnc3[nH]ccc3c2n1C1CCN(S(=O)(=O)c2ccc(-c3ccccc3)cc2)C1 (stereo partly drawn) [LXS09, (1R)-1-(1-(1-([1,1′-biphenyl]-4-ylsulfonyl)pyrrolidin-3-yl)-1,6-dihydroimidazo[4,5-d]pyrrolo[2,3-b]pyridin-2-yl)ethan-1-ol]
10 to 100 nM	10 to 100 nM	O=S(=O)(C1CC1)N1CCC(n2c(-c3ccc(CO)o3)nc3cnc4[nH]ccc4c32)C1 (stereo not shown) [LXS45, (5-(1-(1-(cyclopropylsulfonyl)pyrrolidin-3-yl)-1,6-dihydroimidazo[4,5-d]pyrrolo[2,3-b]pyridin-2-yl)furan-2-yl)methanol]
10 to 100 nM	100 to 1000 nM	C[C@@H](O)c1nc2cnc3[nH]ccc3c2n1C1CCN(S(=O)(=O)c2ccc(OC(F)(F)F)cc2)C1 (stereo partly drawn) [LXS11, (1R)-1-(1-(1-((4-(trifluoromethoxy)phenyl)sulfonyl)pyrrolidin-3-yl)-1,6-dihydroimidazo[4,5-d]pyrrolo[2,3-b]pyridin-2-yl)ethan-1-ol]
10 to 100 nM	10 to 100 nM	O=S(=O)(N1CCC(n2c(-c3ncc[nH]3)nc3cnc4[nH]ccc4c32)C1)C(F)(F)F (stereo not shown) [LXS19, 2-(1H-imidazol-2-yl)-1-(1-((trifluoromethyl)sulfonyl)pyrrolidin-3-yl)-1,6-dihydroimidazo[4,5-d]pyrrolo[2,3-b]pyridine]
< 10 nM	100 to 1000 nM	C[C@@H](O)c1nc2cnc3[nH]ccc3c2n1[C@H]1CCN(CCC(F)(F)C(F)(F)F)C1 [LXS97, (R)-1-(1-((S)-1-(3,3,4,4,4-Pentafluorobutyl)pyrrolidin-3-yl)imidazo[4,5-d]pyrrolo[2,3-b]pyridin-2-yl)ethanol]

The remaining lines, values behind:

Structure (SMILES)	IC50 (JAK1)	IC50 (JAK2)
Cc1ccc(-c2nc3cnc4[nH]ccc4c3n2-c2cnn(CCCC#N)c2)s1 [LXS105]	100 to 1000 nM	10 to 100 nM
N#C[C@H]1CC[C@H](n2c(-c3cnc(N)s3)nc3cnc4[nH]ccc4c32)CC1 (stereo in doubt) [LXS27, trans-4-(2-(2-Aminothiazol-5-yl)imidazo[4,5-d]pyrrolo[2,3-b]pyridin-1(6H)-yl)cyclohexanecarbonitrile]	10 to 100 nM	10 to 100 nM
N#C[C@H]1CC[C@H](n2c(-c3ccc(CO)o3)nc3cnc4[nH]ccc4c32)CC1 (stereo in doubt) [LXS22, trans-4-(2-(5-(hydroxymethyl)furan-2-yl)imidazo[4,5-d]pyrrolo[2,3-b]pyridin-1(6H)-yl)cyclohexanecarbonitrile]	10 to 100 nM	10 to 100 nM
C[C@@H](O)c1nc2cnc3[nH]ccc3c2n1[C@@H]1CN(CCCC(F)(F)F)CC1F (stereo partly drawn) [LXS86, (1R)-1-(1-((3R)-4-fluoro-1-(4,4,4-trifluorobutyl)pyrrolidin-3-yl)-1,6-dihydroimidazo[4,5-d]pyrrolo[2,3-b]pyridin-2-yl)ethan-1-ol]	< 10 nM	100 to 1000 nM
N#C[C@H]1CC[C@H](n2c(-c3cccc(O)c3)nc3cnc4[nH]ccc4c32)CC1 (stereo in doubt) [LXS35, trans-4-(2-(3-Hydroxyphenyl)imidazo[4,5-d]pyrrolo[2,3-b]pyridin-1(6H)-yl)cyclohexanecarbonitrile]	10 to 100 nM	< 10 nM
N#CCC(C1CCCC1)n1cc(-n2c(C(F)(F)F)nc3cnc4[nH]ccc4c32)cn1 (stereo not shown) [LXS66, 3-Cyclopentyl-3-(4-(2-(trifluoromethyl)imidazo[4,5-d]pyrrolo[2,3-b]pyridin-1(6H)-yl)-1H-pyrazol-1-yl)propanenitrile]	10 to 100 nM	10 to 100 nM
COc1ccc(-c2nc3cnc4[nH]ccc4c3n2C2CCC(C#N)CC2)c(O)c1 (stereo in doubt) [LXS41, trans-4-(2-(2-Hydroxy-4-methoxyphenyl)imidazo[4,5-d]pyrrolo[2,3-b]pyridin-1(6H)-yl)cyclohexanecarbonitrile]	100 to 1000 nM	100 to 1000 nM
OCc1ccc(-c2nc3cnc4[nH]ccc4c3n2[C@H]2CCN(CCCC(F)(F)F)C2)o1 [LXS98, (S)-(5-(1-(1-(4,4,4-trifluorobutyl)pyrrolidin-3-yl)-1,6-dihydroimidazo[4,5-d]pyrrolo[2,3-b]pyridin-2-yl)furan-2-yl)methanol]	10 to 100 nM	10 to 100 nM
O=C(NCC(F)(F)F)N1CCC(n2c(-c3ccc(CO)o3)nc3cnc4[nH]ccc4c32)C1 (stereo in doubt) [LXS23, (R)-3-(2-(5-(hydroxymethyl)furan-2-yl)imidazo[4,5-d]pyrrolo[2,3-b]pyridin-1(6H)-yl)-N-(2,2,2-trifluoroethyl)pyrrolidine-1-carboxamide]	100 to 1000 nM	100 to 1000 nM
N#CCCn1cc(-n2c(-c3ccccc3Cl)nc3cnc4[nH]ccc4c32)cn1 [LXS80, 3-(4-(2-(2-Chlorophenyl)imidazo[4,5-d]pyrrolo[2,3-b]pyridin-1(6H)-yl)-1H-pyrazol-1-yl)propanenitrile]	10 to 100 nM	10 to 100 nM
CCS(=O)(=O)N1CC(CC#N)(n2cc(-n3c(-c4ccc(C)s4)nc4cnc5[nH]ccc5c43)cn2)C1 [LXS62, 2-(1-(Ethylsulfonyl)-3-(4-(2-(5-methylthien-2-yl)imidazo[4,5-d]pyrrolo[2,3-b]pyridin-1(6H)-yl)-1H-pyrazol-1-yl)azetidin-3-yl)acetonitrile]	100 to 1000 nM	< 10 nM
N#CCCN1CCC(n2c(-c3ccc(CO)o3)nc3cnc4[nH]ccc4c32)C1 (stereo not shown) [LXS51, 3-(3-(2-(5-(Hydroxymethyl)furan-2-yl)imidazo[4,5-d]pyrrolo[2,3-b]pyridin-1(6H)-yl)pyrrolidin-1-yl)propanenitrile]	10 to 100 nM	10 to 100 nM
N#C[C@H]1CC[C@H](n2c(-c3ccccc3O)nc3cnc4[nH]ccc4c32)CC1 (stereo in doubt) [LXS38, trans-4-(2-(2-Hydroxyphenyl)imidazo[4,5-d]pyrrolo[2,3-b]pyridin-1(6H)-yl)cyclohexanecarbonitrile]	10 to 100 nM	10 to 100 nM
N#CCCCn1cc(-n2cnc3cnc4[nH]ccc4c32)cn1 [LXS103, 4-(4-(imidazo[4,5-d]pyrrolo[2,3-b]pyridin-1(6H)-yl)-1H-pyrazol-1-yl)butanenitrile]	10 to 100 nM	10 to 100 nM
Cc1ccc(-c2nc3cnc4[nH]ccc4c3n2C2CCC(C#N)CC2)o1 (stereo in doubt) [LXS29, trans-4-(2-(2-Methylfuran-5-yl)imidazo[4,5-d]pyrrolo[2,3-b]pyridin-1(6H)-yl)cyclohexanecarbonitrile]	10 to 100 nM	10 to 100 nM
CCCS(=O)(=O)N1CC(CC#N)(n2cc(-n3c(-c4ccc(CO)o4)nc4cnc5[nH]ccc5c43)cn2)C1 [LXS14, 2-(1-(propylsulfonyl)-3-(4-(2-(5-(hydroxymethyl)furan-2-yl)imidazo[4,5-d]pyrrolo[2,3-b]pyridin-1(6H)-yl)-1H-pyrazol-1-yl)azetidin-3-yl)acetonitrile]	100 to 1000 nM	–
Cc1ccc(-c2nc3cnc4[nH]ccc4c3n2-c2cnn(CCC#N)c2)s1 [LXS84, 3-(4-(2-(5-Methylthiophen-2-yl)imidazo[4,5-d]pyrrolo[2,3-b]pyridin-1(6H)-yl)-1H-pyrazol-1-yl)propanenitrile]	10 to 100 nM	–
